Data: ChEMBL document CHEMBL3608266, “Active Constituents from Drynaria fortunei Rhizomes on the Attenuation of Aβ(25-35)-Induced Axonal Atrophy” (J Nat Prod, 2015)
The source made the active and inactive calls. No cut-off for these calls is given here.

Test system: Cortical neurone
Test: Induction of axonal regeneration in mouse cortical neurons assessed as reversal of Abeta (25 to 35)-induced axonal atrophy at 10 uM treated 3 days after Abeta (25 to 35) challenge and measured 4 days post compound dosing by pNF-H and MAP2 immunostaining method
Format: functional

Structure (SMILES)	Activity
O=C(O)/C=C/c1ccc(O[C@@H]2O[C@H](CO)[C@@H](O)[C@H](O)[C@H]2O)c(O)c1	Active
C[C@@H]1O[C@@H](O[C@H]2[C@H](Oc3cc(O)c4c(c3)O[C@H](c3ccc(O)c(O)c3)CC4=O)O[C@H](CO)[C@@H](O)[C@@H]2O)[C@H](O)[C@H](O)[C@H]1O	Active
